Each compound was assayed against human LPAR1 (Homo sapiens, UniProt Q92633) (assay: LPAR1 intracellular calcium mobilization assay (antagonist mode, FLIPR)). Conditions: CHO-K1 EDG2 cells expressing human LPAR1; test compound 0.5 nM to 10 μM pre-incubated 60 minutes at 37° C., then LPA 18:2 at EC80 concentration (100 nM).
Type: cell-based
Protocol: In vitro LPAR1 activity was measured in an intracellular calcium mobilization assay. CHO-K1 EDG2 cells (DiscoverX cat #93-0644C2) expressing human LPAR1 (NM_001401.3) were seeded in a total volume of 25 μL of Dulbecco's Modification of Eagle's Medium (DMEM) with 10% Fetal Bovine Serum, 1× PenStrepGlutamine, 300 μg/ml Hygromycin, and 800 μg/ml G418 into 384-well tissue culture plate (Grenier #781091) at 15,000 cells/well and incubated at 37° C. overnight. Prior to testing, 25 μL Calcium Loading Dye Component A (FLIPR Calcium 6 Assay Kit Molecular Device # R8190) and 2.5 mM Probenecid (Invitrogen # P36400, prepared fresh) in Hank's Balanced Salt Solution (Corning #21-023-CV), 20 mM HEPES (Corning #25-060-CI), 0.1% Bovine Serum Albumin (Sigma-Aldrich # A7906-500G) was add to the cells for 60 minutes at 37° C.
Agonist dose curves of LPA 18:2 (Avanti Polar Lipids cat #857138, 0.5 nM to 10 μM) were recorded to determine the LPA 18:2 EC80 for subsequent antagonist assays. For agonist dose curves, cells were removed from the incubator 2 hours after dye loading and transferred to the FLIPR Tetra instrument (Molecular Devices, San Jose, CA). Calcium mobilization was monitored for 5 min and 10 μL 6×LPA in HBSS/20 mM Hepes/0.1% bovine serum albumin (BSA) was added to the cells 5 seconds into the assay.
To determine the LPAR1 antagonist activity of test compounds, cells were pre-incubated with test compound at a dose range of 0.5 nM to 10 μM, followed by LPA at EC80 concentration (100 nM). After dye loading, cells were removed from the incubator and 0.3 μL of 200× antagonist was added. Cells were incubated for 60 minutes at 37° C. Antagonist activity was measured on a FLIPR Tetra. Calcium mobilization was monitored for 3.5 minutes and 10 μL 6×EC80 LPA in HBSS, 20 mM HEPES, and 0.1% BSA was added to the cells 5 seconds into the assay. Signal amplitude (Maximum minus minimum) values were plotted against log10 of antagonist concentration using Dose Response Tool (Gilead Sciences Inc.) to determine […].
To assess the antagonistic potential of exemplified compounds […] were determined for Compounds 1 to 66 in the LPAR1 calcium mobilization assay. The compound numbers correspond to the compound numbers in Examples 1 to 18. N/A=not available.

Chain of human LPAR1 (Q92633 whole entry): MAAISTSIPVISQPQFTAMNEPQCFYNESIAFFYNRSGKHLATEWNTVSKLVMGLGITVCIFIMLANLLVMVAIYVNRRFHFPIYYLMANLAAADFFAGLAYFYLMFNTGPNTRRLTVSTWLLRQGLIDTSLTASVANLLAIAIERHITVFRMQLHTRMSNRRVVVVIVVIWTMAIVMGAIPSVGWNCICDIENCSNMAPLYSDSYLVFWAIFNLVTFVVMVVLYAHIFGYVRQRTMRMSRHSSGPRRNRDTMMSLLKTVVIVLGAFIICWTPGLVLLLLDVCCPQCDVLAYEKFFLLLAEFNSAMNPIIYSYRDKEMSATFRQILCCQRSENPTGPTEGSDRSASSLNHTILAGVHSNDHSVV

EC50 [nM] | SMILES
9.1 | Cc1nnc(-c2ccc(NC(=O)c3ccc(-c4nnn(C)c4NC(=O)O[C@H](C)c4cc(F)cnc4F)nc3)cc2)o1 [Compound 39, (R)-1-(2,5-difluoro-pyridin-3-yl)ethyl (1-methyl-4-(5-((4-(5-methyl-1,3,4-oxadiazol-2-yl)phenyl)-carbamoyl)-pyridin-2-yl)-1H-1,2,3-triazol-5-yl)carbamate]
< 4.6 | C[C@@H](OC(=O)Nc1c(-c2ccc(C(=O)NC34CC(C#N)(C3)C4)cn2)nnn1C)c1cc(F)cnc1Cl [Compound 47, (R)-1-(2-chloro-5-fluoropyridin-3-yl)ethyl (4-(5-((3-cyanobicyclo-[1.1.1]pentan-1-yl)carbamoyl)-pyridin-2-yl)-1-methyl-1H-1,2,3-triazol-5-yl)-carbamate]
< 4.6 | C[C@@H](OC(=O)Nc1c(-c2ccc(C(=O)Nc3ccnc(C(F)(F)F)c3)cn2)nnn1C)c1cc(F)cnc1Cl [Compound 45, (R)-1-(2-chloro-5-fluoropyridin-3-yl)ethyl (1-methyl-4-(5-((2-(trifluoromethyl)pyridin-4-yl)carbamoyl)pyridin-2-yl)-1H-1,2,3-triazol-5-yl)carbamate]
58.1 | C[C@@H](OC(=O)Nc1c(-c2ccc(C(=O)NC34CC(Cl)(C3)C4)cn2)nnn1C)c1cccnc1F [Compound 55, (R)-1-(2-fluoropyridin-3-yl)ethyl (4-(5-((3-chlorobicyclo[1.1.1]pentan-1-yl)carbamoyl)pyridin-2-yl)-1-methyl-1H-1,2,3-triazol-5-yl)carbamate]

The remaining lines, values behind:

SMILES | EC50 [nM]
C[C@@H](OC(=O)Nc1c(-c2ccc(C(=O)NC34CC(F)(C3)C4)cn2)nnn1C)c1cccnc1Cl [Compound 4, (R)-1-(2-chloro-pyridin-3-yl)-ethyl (4-(5-((3-fluorobicyclo-[1.1.1]pentan-1-yl)carbamoyl)-pyridin-2-yl)-1-methyl-1H-1,2,3-triazol-5-yl)carbamate] | 142
C[C@@H](OC(=O)Nc1c(-c2ccc(C(=O)Nc3cccnc3)cn2)nnn1C)c1cccnc1Cl [Compound 7, (R)-1-(2-chloro-pyridin-3-yl)-ethyl (1-methyl-4-(5-(pyridin-3-ylcarbamoyl)-pyridin-2-yl)-1H-1,2,3-triazol-5-yl)carbamate] | 334
Cc1nc(-c2nnn(C)c2NC(=O)O[C@H](C)c2cccnc2Cl)ccc1C(=O)NC12CC(Cl)(C1)C2 [Compound 58, (R)-1-(2-chloropyridin-3-yl)ethyl (4-(5-((3-chlorobicyclo[1.1.1]pentan-1-yl)carbamoyl)-6-methylpyridin-2-yl)-1-methyl-1H-1,2,3-triazol-5-yl)carbamate] | 48.3
C[C@@H](OC(=O)Nc1c(-c2ncc(C(=O)NC34CC(F)(C3)C4)cc2F)nnn1C)c1cccnc1Cl [Compound 64, (R)-1-(2-chloropyridin-3-yl)ethyl (4-(3-fluoro-5-((3-fluorobicyclo[1.1.1]pentan-1-yl)carbamoyl)pyridin-2-yl)-1-methyl-1H-1,2,3-triazol-5-yl)carbamate] | 93.5
C[C@@H](OC(=O)Nc1c(-c2ccc(C(=O)NC34CC(C#N)(C3)C4)c(Cl)n2)nnn1C)c1cccnc1Cl [Compound 65, (R)-1-(2-chloropyridin-3-yl)ethyl (4-(6-chloro-5-((3-cyanobicyclo[1.1.1]pentan-1-yl)carbamoyl)pyridin-2-yl)-1-methyl-1H-1,2,3-triazol-5-yl)carbamate] | < 4.6
C[C@@H](OC(=O)Nc1c(-c2ccc(C(=O)Nc3ccccc3)cn2)nnn1C)c1cccnc1Cl [Compound 14, (R)-1-(2-chloro-pyridin-3-yl)-ethyl (1-methyl-4-(5-(phenyl-carbamoyl)-pyridin-2-yl)-1H-1,2,3-triazol-5-yl)carbamate] | 256
C[C@@H](OC(=O)Nc1c(-c2ccc(C(=O)Nc3ccc(-c4ccccc4)cc3)cn2)nnn1C)c1cc(F)cnc1F [Compound 36, (R)-1-(2,5-difluoro-pyridin-3-yl)ethyl (4-(5-([1,1′-biphen-yl]-4-ylcarbamoyl)-pyridin-2-yl)-1-methyl-1H-1,2,3-triazol-5-yl)-carbamate] | 15.6
